According to US8461193B2, “Substituted pyrrolo-pyrazole derivatives active as kinase inhibitors” (Nerviano Medical Sciences S.R.L., priority 2005, dated 2013):
Read-outs that look alike come from different tables or passages of the source.

Columns and labels:
[1] = test system: IGF1-induced S6 phosphorylation; test: Growth factor induced S6 ribosomal protein phosphorylation in primary human fibroblasts; format: cell-based; conditions: normal human dermal fibroblasts (NHDF), stimulated with 10 nM IGF-1; read-out: Inhibition of IGF1-induced S6 phosphorylation IC50
Description: Growth Factor Induced S6 Ribosomal Protein Phosphorylation in Primary Human Fibroblasts.
Phosphorylation of S6 ribosomal protein in response to growth factor stimulation of normal human dermal fibroblasts (NHDF) was used to assess compound potency in inhibiting IGF-1 induced signal transduction in cells, and selectivity towards EGF and PDGF stimulus. NHDF cells obtained from PromoCell (Heidelberg, Germany), were maintained at 37° C. in a humidified atmosphere with 5% CO2 in complete Fibroblast Growth Medium (PromoCell). For assay, NHDF were seeded in 384-well tissue culture plates (clear- and flat-bottomed black plates; Matrix Technologies Inc., Hudson, N.H., USA) at a density of 5000 cells/well in serum-free medium containing 0.1% bovine serum albumin (BSA) and incubated for 5 days. Starved cells were treated for 1 hour with desired doses of compounds and then stimulated for a further 2 hours with either 10 nM IGF-1 (Invitrogen Corp., CA, USA), 10 nM EGF (Gibco BRL, USA) or 1 nM PDGF-B/B (Roche Diagnostics GmbH, Germany). Cells were then fixed in PBS/3.7% paraformaldehyde for 20 minutes at room temperature, washed ×2 with PBS, and permeabilized with PBS/0.3% Triton X-100 for 15 minutes. Wells were then saturated with PBS/1% non-fat dry milk (Bio-Rad Laboratories, Hercules, Calif., USA) for 1 hour, and then probed for 1 hour at 37° C. with anti-phospho-S6 (Ser 235/236) antibody (Cell Signaling Technology, Beverly, Mass., USA, cat. #2211) at 1/200 dilution in PBS/1% milk/0.3% Tween 20. […] Fluorescence images in the DAPI and Cy5™ channels were automatically acquired, stored and analysed using a Cellomics ArrayScan™ IV instrument (Cellomics, Pittsburgh, USA); the Cellomics Cytotoxicity Algorithm was used to quantify cytoplasmic fluorescence associated with phospho-S6 (Cy5™ signal parameter: “Mean Lyso Mass-pH”) for each cell in 10 fields/well, and eventually expressed as a mean population value. […]

IGF1R [2] = biological target: T1, IGF1R (Homo sapiens, UniProt P08069); test: Western blot analysis of receptor phosphorylation following stimulation with IGF-1 in MCF-7 human breast cancer cells; format: cell-based; design: endogenous in cells; host or cells: MCF-7 (ATCC# HTB-22); conditions: starved MCF-7 cells, increasing concentrations of compound prior to 10 nM IGF1
Description: Cell-Based Assays for Inhibitors of IGF-1R Kinase Activity Western Blot Analysis of Receptor Phosphorylation Following Stimulation with IGF-1 in MCF-7 Human Breast Cancer Cells
MCF-7 cells (ATCC# HTB-22) were seeded in 12-well tissue culture plates at 2×10^5 cells/well in E-MEM medium (MEM+Earle's BSS+2 mM glutamine+0.1 mM non-essential amino acids)+10% FCS, and incubated overnight at 37° C., 5% CO2, 100% relative humidity. Cells were then starved by replacing E-MEM+10% FCS with E-MEM+0.1% BSA, and incubating overnight. After this incubation, wells were treated with desired concentrations of compound for 1 hour at 37° C., and were then stimulated with 10 nM recombinant human IGF-1 (Invitrogen, Carlsbad, Calif., USA) for 10 minutes at 37° C. […] Cell lysates were cleared by centrifugation at 10,000×g for 5 minutes, and 10 microg/lane of cleared lysate protein were run on NuPAGE gels (NuPAGE 4-12% 10-lane Bis-Tris gels, Invitrogen) with MOPS running buffer, then transferred onto Hybond-ECL nitrocellulose filters (Amersham Biosciences, Little Chalfont, Buckinghamshire, UK) using Mini PROTEAN II chambers (Bio-Rad Laboratories, Hercules, Calif., USA). […] In either case, filters were then washed for 30 minutes with several changes of TBS+0.15% Tween 20, and incubated for 1 hour in washing buffer containing 1/5000 dilution of horseradish peroxidase conjugated anti-rabbit IgG (Amersham, product #NA934), then were washed again and developed using the ECL chemiluminescence system (Amersham) according to manufacturer's recommendations. Unless otherwise stated, reagents used were from Sigma-Aldrich, St. Louis, Mo., USA.
Target sequence in this assay (P08069 31-1367): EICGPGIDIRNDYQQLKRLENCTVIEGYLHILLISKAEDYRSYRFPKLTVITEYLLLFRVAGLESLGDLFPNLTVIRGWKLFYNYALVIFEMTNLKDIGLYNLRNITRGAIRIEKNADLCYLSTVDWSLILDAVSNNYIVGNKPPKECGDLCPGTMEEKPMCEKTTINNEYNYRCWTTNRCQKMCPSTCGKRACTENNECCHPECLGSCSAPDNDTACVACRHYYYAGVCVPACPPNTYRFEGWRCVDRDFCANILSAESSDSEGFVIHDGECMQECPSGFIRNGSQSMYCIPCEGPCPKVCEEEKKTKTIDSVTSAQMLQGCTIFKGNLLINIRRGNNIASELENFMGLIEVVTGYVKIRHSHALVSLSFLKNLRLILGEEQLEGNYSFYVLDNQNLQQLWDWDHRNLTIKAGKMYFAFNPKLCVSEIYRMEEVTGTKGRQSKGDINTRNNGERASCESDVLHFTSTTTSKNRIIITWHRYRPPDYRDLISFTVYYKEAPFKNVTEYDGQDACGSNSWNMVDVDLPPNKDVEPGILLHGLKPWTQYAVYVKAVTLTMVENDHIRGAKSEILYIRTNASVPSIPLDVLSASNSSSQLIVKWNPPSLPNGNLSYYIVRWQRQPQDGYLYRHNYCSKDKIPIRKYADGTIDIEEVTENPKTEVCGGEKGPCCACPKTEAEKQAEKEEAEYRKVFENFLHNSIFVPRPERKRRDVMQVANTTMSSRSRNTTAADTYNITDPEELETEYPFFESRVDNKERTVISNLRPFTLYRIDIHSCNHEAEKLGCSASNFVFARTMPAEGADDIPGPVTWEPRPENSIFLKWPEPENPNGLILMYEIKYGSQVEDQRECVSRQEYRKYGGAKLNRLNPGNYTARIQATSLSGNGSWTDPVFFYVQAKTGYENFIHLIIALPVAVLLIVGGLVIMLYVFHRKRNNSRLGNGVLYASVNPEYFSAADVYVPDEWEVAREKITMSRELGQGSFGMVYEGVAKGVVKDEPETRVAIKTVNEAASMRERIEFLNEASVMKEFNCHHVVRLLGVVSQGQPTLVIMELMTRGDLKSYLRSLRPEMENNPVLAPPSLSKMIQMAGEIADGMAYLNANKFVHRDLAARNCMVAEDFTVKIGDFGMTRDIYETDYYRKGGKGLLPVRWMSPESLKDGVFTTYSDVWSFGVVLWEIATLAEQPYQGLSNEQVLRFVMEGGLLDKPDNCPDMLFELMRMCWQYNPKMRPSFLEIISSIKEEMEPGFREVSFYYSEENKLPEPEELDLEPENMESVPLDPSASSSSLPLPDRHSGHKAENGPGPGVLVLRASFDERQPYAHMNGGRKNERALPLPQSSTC

IGF1R [3] = biological target: T1, IGF1R; test: Biochemical assay for inhibitors of IGF-1R kinase activity (trans-phosphorylation assay, robotized Dowex assay); design: amino acid residues 960-1367 of precursor protein; made in house; host or cells: H5 insect cells (baculovirus; virus made in Sf21 cells)
Description: ID NO: 2). […] The inhibitory activity of putative kinase inhibitors and the potency of selected compounds were determined using a trans-phosphorylation assay.
Target sequence in this assay (P08069 960-1367): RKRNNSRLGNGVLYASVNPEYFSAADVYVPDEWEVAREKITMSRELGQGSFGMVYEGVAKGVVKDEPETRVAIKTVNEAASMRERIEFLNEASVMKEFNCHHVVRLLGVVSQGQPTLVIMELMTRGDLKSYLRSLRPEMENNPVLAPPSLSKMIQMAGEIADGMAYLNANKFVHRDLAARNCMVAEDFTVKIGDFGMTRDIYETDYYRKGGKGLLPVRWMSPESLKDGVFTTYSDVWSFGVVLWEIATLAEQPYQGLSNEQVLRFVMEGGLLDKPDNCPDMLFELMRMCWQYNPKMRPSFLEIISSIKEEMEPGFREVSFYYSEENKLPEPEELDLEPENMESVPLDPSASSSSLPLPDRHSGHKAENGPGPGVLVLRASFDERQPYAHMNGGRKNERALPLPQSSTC

[4] = 6 nM enzyme, 6 microM ATP, 10 microM peptide substrate, read-out: IGF1R IC50 (μM) Biochemical assay

IC50 (IGF1R [3]) [µM]	IC50 (IGF1R [3]; [4]) [µM]	Compound	IC50 [1] [nM]	inhibition of IGF1-induced IGF1R auto-phosphorylation (pIGF1R band, FIG. 1) (IGF1R [2])
0.09		CN1CCN(c2ccc(C(=O)Nc3n[nH]c4c3CN(S(=O)(=O)c3cc(F)cc(F)c3)C4(C)C)c(NC(=O)c3cc[nH]c3)c2)CC1 [Compound 11, 1H-pyrrole-3-carboxylic acid [2-[5-(3,5-difluoro-benzenesulfonyl)-6,6-dimethyl-1,4,5,6-tetrahydro-pyrrolo[3,4-c]pyrazol-3-ylcarbamoyl]-5-(4-methyl-piperazin-1-yl)-phenyl]-amide]	300	inhibition of IGF1-induced IGF1R auto-phosphorylation
	0.17	CN1CCN(c2ccc(C(=O)Nc3n[nH]c4c3CN(S(=O)(=O)c3cc(F)cc(F)c3)C4(C)C)c(NC(=O)[C@@H]3CCCO3)c2)CC1 [Compound 1, (S)-Tetrahydro-furan-2-carboxylic acid [2-[5-(3,5-difluoro-benzenesulfonyl)-6,6-dimethyl-1,4,5,6-tetrahydro-pyrrolo[3,4-c]pyrazol-3-ylcarbamoyl]-5-(4-methyl-piperazin-1-yl)-phenyl]-amide]	740	inhibition of IGF1-induced IGF1R auto-phosphorylation
	0.46	CC(C)CNc1cc(N2CCN(C)CC2)ccc1C(=O)Nc1n[nH]c2c1CN(S(=O)(=O)c1cc(F)cc(F)c1)C2(C)C.Cl [Compound 90, N-[5-(3,5-Difluoro-benzenesulfonyl)-6,6-dimethyl-1,4,5,6-tetrahydro-pyrrolo[3,4-c]pyrazol-3-yl]-2-isobutylamino-4-(4-methyl-piperazin-1-yl)-benzamide hydrochloride]	5300	inhibition of IGF1-induced IGF1R auto-phosphorylation
